Data from BindingDB's records for doi:10.1073/pnas.151105198 (Synaptic Pharmaceutical, 2001).

Target: T1, Trace amine-associated receptor 1 (Homo sapiens, UniProt Q96RJ0)
T1 sequence (Q96RJ0 whole entry): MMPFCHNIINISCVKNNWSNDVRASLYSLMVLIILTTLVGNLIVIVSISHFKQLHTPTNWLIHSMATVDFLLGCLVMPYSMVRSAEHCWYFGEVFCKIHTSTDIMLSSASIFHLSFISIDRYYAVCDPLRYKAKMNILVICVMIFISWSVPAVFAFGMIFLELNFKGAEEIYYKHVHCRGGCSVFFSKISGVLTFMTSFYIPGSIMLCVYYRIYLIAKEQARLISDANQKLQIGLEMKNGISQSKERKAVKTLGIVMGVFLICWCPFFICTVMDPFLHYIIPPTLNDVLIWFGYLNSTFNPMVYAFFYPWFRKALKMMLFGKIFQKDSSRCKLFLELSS

Row | Structure (SMILES) | Ki [nM]
1 | NCCc1ccc(O)cc1 | 34
2 | NCC(O)c1ccc(O)c(O)c1 (stereo not drawn) [Noradrenaline,(+)] | > 10000
3 | OCCc1ccccc1 [NSC_6054] | 8
4 | CN1CCN(C2Cc3ccccc3Sc3ccc(Cl)cc32)CC1 (stereo unspecified) [1-(8-chloro-10,11-dihydrodibenzo[b,f]thiepin-10-yl)-4-methylpiperazine] | 493
5 | NCCc1c[nH]c2ccccc12 [1H-indole-3-ethanamine] | 1080
6 | NCCc1c[nH]cn1 [[3H]histamine] | 3110
